Assay: xn = mol fraction of the nth substance listed

COCCOCCOC + CCCCCCCCCO
101 kPa
Details | viscosity [mPa·s]
293.15 K, x1 = 0.03749 | 9.714
293.15 K, x1 = 0.09901 | 7.617
293.15 K, x1 = 0.1933 | 5.424
293.15 K, x1 = 0.2971 | 3.978
293.15 K, x1 = 0.4043 | 3.002
293.15 K, x1 = 0.4948 | 2.43
293.15 K, x1 = 0.597 | 1.978
293.15 K, x1 = 0.6959 | 1.641
293.15 K, x1 = 0.822 | 1.36
293.15 K, x1 = 0.9135 | 1.201
293.15 K, x1 = 0.9364 | 1.177
303.15 K, x1 = 0.03786 | 6.826
303.15 K, x1 = 0.1002 | 5.439
303.15 K, x1 = 0.1822 | 4.165
303.15 K, x1 = 0.2967 | 3.028
303.15 K, x1 = 0.4005 | 2.353
303.15 K, x1 = 0.5022 | 1.911
303.15 K, x1 = 0.5943 | 1.603
303.15 K, x1 = 0.7009 | 1.347
303.15 K, x1 = 0.7989 | 1.167
303.15 K, x1 = 0.894 | 1.038
303.15 K, x1 = 0.9511 | 0.975
313.15 K, x1 = 0.03928 | 4.899
313.15 K, x1 = 0.1017 | 4.015
313.15 K, x1 = 0.198 | 3.05
313.15 K, x1 = 0.304 | 2.349
313.15 K, x1 = 0.3952 | 1.91
313.15 K, x1 = 0.5025 | 1.559
313.15 K, x1 = 0.5982 | 1.312
313.15 K, x1 = 0.6977 | 1.134
313.15 K, x1 = 0.7914 | 1.001
313.15 K, x1 = 0.8971 | 0.884
313.15 K, x1 = 0.9456 | 0.842

COCCOCCOC + CCCCCCCO
101 kPa
Details | viscosity [mPa·s]
293.15 K, x1 = 0.04527 | 5.749
293.15 K, x1 = 0.09631 | 4.758
293.15 K, x1 = 0.1964 | 3.424
293.15 K, x1 = 0.2974 | 2.659
293.15 K, x1 = 0.3948 | 2.201
293.15 K, x1 = 0.4982 | 1.826
293.15 K, x1 = 0.5957 | 1.573
293.15 K, x1 = 0.6957 | 1.385
293.15 K, x1 = 0.8053 | 1.255
293.15 K, x1 = 0.8916 | 1.169
293.15 K, x1 = 0.957 | 1.12
303.15 K, x1 = 0.05391 | 4.113
303.15 K, x1 = 0.09481 | 3.59
303.15 K, x1 = 0.198 | 2.635
303.15 K, x1 = 0.2974 | 2.097
303.15 K, x1 = 0.3935 | 1.765
303.15 K, x1 = 0.4894 | 1.515
303.15 K, x1 = 0.5993 | 1.294
303.15 K, x1 = 0.6968 | 1.153
303.15 K, x1 = 0.8032 | 1.053
303.15 K, x1 = 0.8887 | 0.999
303.15 K, x1 = 0.9613 | 0.958
313.15 K, x1 = 0.05044 | 3.122
313.15 K, x1 = 0.0869 | 2.793
313.15 K, x1 = 0.1869 | 2.128
313.15 K, x1 = 0.2981 | 1.689
313.15 K, x1 = 0.3977 | 1.428
313.15 K, x1 = 0.5081 | 1.228
313.15 K, x1 = 0.5937 | 1.096
313.15 K, x1 = 0.7001 | 0.974
313.15 K, x1 = 0.7989 | 0.903
313.15 K, x1 = 0.8893 | 0.848
313.15 K, x1 = 0.9538 | 0.819

ClC(Cl)C(Cl)Cl + CCCCCCCO
303.15 K, 101 kPa
Details | viscosity [mPa·s]
x2 = 0.1082 | 1.677
x2 = 0.2331 | 1.902
x2 = 0.3041 | 2.042
x2 = 0.3446 | 2.126
x2 = 0.4479 | 2.367
x2 = 0.5205 | 2.568
x2 = 0.6548 | 3.047
x2 = 0.781 | 3.616
x2 = 0.8562 | 4.014
x2 = 0.9304 | 4.446

COCCOCCOC + CCCCCCO
101 kPa
Details | viscosity [mPa·s]
293.15 K, x1 = 0.04448 | 4.368
293.15 K, x1 = 0.105 | 3.527
293.15 K, x1 = 0.1942 | 2.714
293.15 K, x1 = 0.3018 | 2.148
293.15 K, x1 = 0.4004 | 1.796
293.15 K, x1 = 0.4511 | 1.674
293.15 K, x1 = 0.6059 | 1.383
293.15 K, x1 = 0.6997 | 1.285
293.15 K, x1 = 0.7893 | 1.204
293.15 K, x1 = 0.9139 | 1.128
293.15 K, x1 = 0.9331 | 1.117
303.15 K, x1 = 0.04385 | 3.29
303.15 K, x1 = 0.09867 | 2.69
303.15 K, x1 = 0.1894 | 2.153
303.15 K, x1 = 0.2974 | 1.72
303.15 K, x1 = 0.4047 | 1.435
303.15 K, x1 = 0.4914 | 1.28
303.15 K, x1 = 0.6035 | 1.141
303.15 K, x1 = 0.7106 | 1.046
303.15 K, x1 = 0.7884 | 0.996
303.15 K, x1 = 0.9193 | 0.945
303.15 K, x1 = 0.942 | 0.937
313.15 K, x1 = 0.04597 | 2.536
313.15 K, x1 = 0.09846 | 2.162
313.15 K, x1 = 0.1996 | 1.706
313.15 K, x1 = 0.2989 | 1.412
313.15 K, x1 = 0.4011 | 1.226
313.15 K, x1 = 0.4983 | 1.089
313.15 K, x1 = 0.5998 | 0.991
313.15 K, x1 = 0.7041 | 0.916
313.15 K, x1 = 0.7993 | 0.866
313.15 K, x1 = 0.9072 | 0.825
313.15 K, x1 = 0.942 | 0.815

CCCCCCn1cc[n+](C)c1.F[B-](F)(F)F + CCCCCO
101.33 kPa, x1 = 0.135
Details | viscosity [mPa·s]
315 K | 5.305
315.75 K | 4.745

CCCCCCN + CCCCN(CCCC)CCCC
viscosity [mPa·s], 101 kPa
Details | x2 = 0.1032 | x2 = 0.1936 | x2 = 0.3936 | x2 = 0.4924 | x2 = 0.6079 | x2 = 0.782 | x2 = 0.9153
303.15 K | 0.7562 | 0.7958 | 0.8857 | 0.9301 | 0.9836 | 1.063 | 1.125
313.15 K | 0.6517 | 0.6853 | 0.7606 | 0.7985 | 0.8436 | 0.9122 | 0.9652

Oc1ccccc1 + CCCCN(CCCC)CCCC
298.16 K, 101 kPa
Details | viscosity [mPa·s]
x1 = 0.5219 | 9.41
x1 = 0.6008 | 14.9
x1 = 0.6531 | 23.52
x1 = 0.6723 | 27.66
x1 = 0.7083 | 43.54
x1 = 0.7386 | 64.37
x1 = 0.7532 | 78.43
x1 = 0.7783 | 108.3
x1 = 0.7981 | 126.2
x1 = 0.8207 | 131.2
x1 = 0.8248 | 125.7
x1 = 0.8491 | 110.5
x1 = 0.8704 | 84.32
x1 = 0.9022 | 56.08
x1 = 0.9213 | 40.37
x1 = 0.9711 | 20.65

Oc1ccccc1 + CCCCNCCCC
298.16 K, 101 kPa
Details | viscosity [mPa·s]
x1 = 0.5012 | 5.109
x1 = 0.6086 | 13.4
x1 = 0.6558 | 20.06
x1 = 0.6934 | 34.09
x1 = 0.7223 | 46.47
x1 = 0.753 | 64.82
x1 = 0.7713 | 74.82
x1 = 0.7925 | 84.1
x1 = 0.8147 | 89.23
x1 = 0.8446 | 82.1
x1 = 0.875 | 62.86
x1 = 0.8948 | 49.73
